Results reported in PubChem BioAssay AID1648 (Sanford-Burnham Center for Chemical Genomics, 2009).
Activity calls are given as the source filed them. The rule behind the calls is not given here.

target: Serine/threonine-protein kinase mTOR (Homo sapiens) (UniProt P42345); experiment: binders of mTOR FRB domain, biophysical, NMR (AID 1648); details: NMR binding to FRB domain, chemical shift
Sequence (P42345 2015-2114): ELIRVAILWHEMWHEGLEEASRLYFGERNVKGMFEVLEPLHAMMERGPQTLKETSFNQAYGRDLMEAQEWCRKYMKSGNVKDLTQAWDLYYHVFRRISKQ

SMILES	Kd
O=C(CSc1ncn[nH]1)c1ccccc1	> 4 mM (inactive)
COC(=O)/C(C)=C\CC12OC(C)(C)C3CC(C=C4C(=O)c5c(OC)c6c(c(CC=C(C)C)c5OC431)OC(C)(CCC=C(C)C)C=C6)C2=O (configuration not stated)	> 4 mM (inactive)
Nc1cccc(-n2cnnn2)c1	> 4 mM (inactive)
CC(=O)Oc1cc2c(c(C)c1OC(C)=O)CC=C1[C@@]2(C)CC[C@@]2(C)C3C[C@](C)(C(=O)O)CC[C@]3(C)CC[C@]12C (some centres not stated)	> 4 mM (inactive)
C(=N\n1cnnc1)/c1cccs1	> 4 mM (inactive)
CCN=Cc1c(O)n(-c2ccccc2C)c(=O)[nH]c1=O	> 4 mM (inactive)
Oc1ccccc1-c1cc(C(F)(F)F)[nH]n1	> 4 mM (inactive)
COc1ccc([C@H]2Oc3c(I)c(OC)cc(OC)c3C[C@@H]2O)cc1OC	> 4 mM (inactive)
Cc1cc(C)n(-c2nc(N)cc(=O)[nH]2)n1	> 4 mM (inactive)
CC1(C)C(=O)[C@@H]2O[C@@H]2[C@@]2(C)C1C[C@@H](O)[C@]1(C)C2CC[C@@]2(C)[C@H](c3ccoc3)OC(=O)C3OC321 (some centres not stated)	> 4 mM (inactive)
COCC(=O)Nc1cc2c3c(c1)CCN3C(=O)CC2	> 4 mM (inactive)
Cc1ccccc1NC(=O)/C=C\C(N)=O	> 4 mM (inactive)
CN(C)C(=O)Oc1cccc(-c2nnco2)c1	> 4 mM (inactive)
O=C(O)c1onc2ccccc12	> 4 mM (inactive)
CN1CCN(Cc2cccnc2)CC1	> 4 mM (inactive)
Cc1cc(C)nc(N2CC(=O)N(C)C2=N)n1	> 4 mM (inactive)
O=C(Nc1ccccc1Cl)c1cnccn1	> 4 mM (inactive)
CCNC(=S)Nc1c(C)n(C)n(-c2ccccc2)c1=O	> 4 mM (inactive)
Cc1ccc(C(=O)N2CC(=O)NC(=O)C2)cc1	> 4 mM (inactive)
Nc1cccc2nonc12	> 4 mM (inactive)
CS(=O)(=O)N1CCN(c2ccccc2F)CC1	> 4 mM (inactive)
CN(C)C(=S)Nc1ccccc1N1CCOCC1	> 4 mM (inactive)
OCc1ccc2c(c1)CCO2	> 4 mM (inactive)
Nc1ncnc(NCCO)c1[N+](=O)[O-]	> 4 mM (inactive)

SMILES	Kd
CN(C)C(=O)CSc1cccc2cccnc12	> 4 mM (inactive)
CC(=O)O[C@@H]1CC2C(C)(C)C(=O)C3OC3[C@]2(C)C2CC[C@@]3(C)[C@H](c4ccoc4)OC(=O)C4OC43[C@@]21C (some centres not stated)	> 4 mM (inactive)
COC(=O)c1ccc2nc[nH]c2c1	> 4 mM (inactive)
NC(=O)c1ccc2c(c1)OCO2	> 4 mM (inactive)
CC1CCc2cc(F)ccc2N1C(=O)c1ccc(=O)[nH]n1 (configuration not stated)	> 4 mM (inactive)
CNC(=O)C(=O)Nc1ccc(F)cc1	> 4 mM (inactive)
Cc1cc(O)c2c(c1O)C(=O)c1c(O)cc(C)c(O)c1C2=O	> 4 mM (inactive)
Nc1cc2ccccc2cn1	> 4 mM (inactive)
OCc1csc(-c2cccs2)n1	> 4 mM (inactive)
O=C(O)Cn1nnn(-c2ccccc2)c1=S	> 4 mM (inactive)
COc1cc(CNC(=O)CCCC/C=C/C(C)C)ccc1O	> 4 mM (inactive)
COn1c(=O)c(-c2ccco2)[n+]([O-])c2ccccc21	> 4 mM (inactive)
CCc1noc(C)c1C(=O)Nc1ncc(C)s1	> 4 mM (inactive)
c1ccc(Cn2cccc2)nc1	> 4 mM (inactive)
Nc1ccc2nsnc2c1	> 4 mM (inactive)
NC1CCN(Cc2ccccc2)CC1	> 4 mM (inactive)
Cc1nc2ccccc2c(=O)n1/N=C/c1ccncc1	> 4 mM (inactive)
O=C(O)c1coc2c1C(=O)CCC2	> 4 mM (inactive)
Cc1ccc(CN2CCN(C(=O)C3CCC3)CC2)cc1	> 4 mM (inactive)
O=C1c2ccccc2C(=O)N1Cc1ccco1	> 4 mM (inactive)
Nc1nc(SCc2ccccc2)ns1	> 4 mM (inactive)
COCC(=O)OCn1nnc2ccccc2c1=O	> 4 mM (inactive)
O=C1CSC2(CN3CCC2CC3)N1 (configuration not stated)	> 4 mM (inactive)
